Each structure is given as a SMILES string. Read-outs that look alike come from different tables or passages of the source. A value given as a limit tells only on which side of the number the result lay.

The IC50 is the concentration that inhibits the measured activity by half.

This experiment concerns Myc. Kind of experiment: Myc inhibition assay: Myc expression per cell by anti-Myc immunofluorescence, high-content imaging. To be noted: medulloblastoma PDX cells, 4 h. In kind it is cell-based, human (patient-derived medulloblastoma xenograft cells). The text has this: To identify Myc inhibitors, cells isolated from patient-derived orthotopic xenografts (PDXs) from patients with Myc-driven medulloblastoma were used. Specifically, PDX cells were propagated by transplantation directly into the cerebellum of immunodeficient (NSG) mice and were never passaged in vitro in order to maintain properties of the tumor from which they were derived. Tumor tissues were isolated from tumor-bearing animals, dissociated into a single-cell suspension, resuspended in serum-free media, and immediately plated in 384 well plates. After overnight recovery, compounds were added to each well, and cells were incubated for 4 hours before being fixed and stained with anti-Myc antibodies and with DAPI to label nuclei. Cells were then analyzed using high-content imaging to determine the levels of Myc expression per cell and IC50 values of the compounds.
A general note: Xenograft models place foreign cells or tissue in a host animal.

The mark [1] stands for this setting: Table 1, read-out: IC50 (Myc inhibition).
[2] abbreviates: Table 2, read-out: MYC Inhibition IC50.

`COc1ccc(-c2ccnc(Nc3cccc(F)c3)n2)cn1` [Compound 214, N-(3-fluorophenyl)-4-(6-methoxypyridin-3-yl)pyrimidin-2-amine]: the IC50 reads like this: under setting [1], 10000 to 100000 nM; under setting [2], 10000 to 100000 nM.
Turning to `FC(F)(F)c1nnc(Nc2nccc(-c3ccc4[nH]cnc4c3)n2)s1` [Compound 58, N-(4-(1H-benzo[d]imidazol-5-yl)pyrimidin-2-yl)-5-(trifluoromethyl)-1,3,4-thiadiazol-2-amine], the IC50 is, setting by setting: under setting [1], 1000 to 10000 nM; under setting [2], 1000 to 10000 nM.
For the compound `NCCCOc1cccc(Nc2nccc(-c3ccc4[nH]cnc4c3)n2)c1` [Compound 91, N-(3-(3-aminopropoxy)phenyl)-4-(1H-benzo[d]imidazol-5-yl)pyrimidin-2-amine], the IC50 was 200 to 1000 nM under setting [1] and 200 to 1000 nM under setting [2].
In the case of `COc1cc(-c2ccnc(Nc3cncc(F)c3)n2)ccn1` [Compound 146, N-(5-fluoropyridin-3-yl)-4-(2-methoxypyridin-4-yl)pyrimidin-2-amine], the concentration for half-maximal inhibition (IC50) is, setting by setting: under setting [1], 1000 to 10000 nM; under setting [2], 1000 to 10000 nM.
Take `FC(F)(F)Oc1cccc(Nc2nccc(-c3ccc4[nH]cnc4c3)n2)c1` [Compound 100, 4-(1H-benzo[d]imidazol-5-yl)-N-(3-(trifluoromethoxy)phenyl)pyrimidin-2-amine]: the IC50 reads like this: under setting [1], 200 to 1000 nM; under setting [2], 200 to 1000 nM.
Take `Cc1cccc(Nc2nccc(-c3ccnc(O)c3)n2)c1` [Compound 159, 4-(2-(m-tolylamino)pyrimidin-4-yl)pyridin-2-ol]: the concentration for half-maximal inhibition (IC50) is, setting by setting: under setting [1], 200 to 1000 nM; under setting [2], 200 to 1000 nM.
For the compound `O=S(=O)(NC1CC1)c1cccc(Nc2nccc(-c3ccc4[nH]cnc4c3)n2)c1` [Compound 24, 3-((4-(1H-benzo[d]imidazol-5-yl)pyrimidin-2-yl)amino)-N-cyclopropylbenzenesulfonamide], the 50% inhibitory concentration (IC50) runs as follows: under setting [1], 200 to 1000 nM; under setting [2], 200 to 1000 nM.
Consider `c1ccc(Nc2nccc(-c3ccc4[nH]cnc4c3)n2)cc1` [Compound 78, 4-(1H-benzo[d]imidazol-5-yl)-N-phenylpyrimidin-2-amine], for which the IC50 lay in the range of 1000 to 10000 nM under setting [1] and 1000 to 10000 nM under setting [2].
As for `Clc1cc(Cl)cc(Nc2nccc(-c3ccc4[nH]cnc4c3)n2)c1` [Compound 49, 4-(1H-benzo[d]imidazol-5-yl)-N-(3,5-dichlorophenyl)pyrimidin-2-amine], the half-maximal inhibitory concentration (IC50) by setting is: under setting [1], 1000 to 10000 nM; under setting [2], 1000 to 10000 nM.
For the compound `c1ccc2cc(Nc3nccc(-c4ccc5[nH]cnc5c4)n3)ccc2c1` [Compound 55, 4-(1H-benzo[d]imidazol-5-yl)-N-(naphthalen-2-yl)pyrimidin-2-amine], the IC50 under setting [1] was in the range of 200 to 1000 nM and the half-inhibitory concentration (IC50) under setting [2] lay within 200 to 1000 nM.
For `O=C(O)c1cccc(Nc2nccc(-c3ccc4[nH]cnc4c3)n2)c1` [Compound 28, 3-((4-(1H-benzo[d]imidazol-5-yl)pyrimidin-2-yl)amino)benzoic acid], the IC50 by setting is: under setting [1], 1000 to 10000 nM; under setting [2], 1000 to 10000 nM.
For the compound `CC(C)C(=O)Nc1cccc(Nc2nccc(-c3ccc4[nH]cnc4c3)n2)c1` [Compound 257, N-(3-((4-(1H-benzo[d]imidazol-5-yl)pyrimidin-2-yl)amino)phenyl)isobutyramide], the 50% inhibitory concentration (IC50) lay in the range of 200 to 1000 nM under setting [1] and 200 to 1000 nM under setting [2].
Regarding `c1cc(-c2ccc3[nH]cnc3c2)nc(Nc2ccsc2)n1` [Compound 68, 4-(1H-benzo[d]imidazol-5-yl)-N-(thiophen-3-yl)pyrimidin-2-amine], the 50% inhibitory concentration (IC50) by setting is: under setting [1], 200 to 1000 nM; under setting [2], 200 to 1000 nM.
As for `COc1ccc(Oc2ccnc(Nc3cccc(F)c3)n2)cn1` [Compound 124], the half-maximal inhibitory concentration (IC50) lay within 10000 to 100000 nM under setting [1] and 10000 to 100000 nM under setting [2].
Take `COc1cc(-c2ccnc(Nc3cccnc3)n2)ccn1` [Compound 189, 4-(2-methoxypyridin-4-yl)-N-(pyridin-3-yl)pyrimidin-2-amine]: the 50% inhibitory concentration (IC50) is 1000 to 10000 nM under setting [1] and 1000 to 10000 nM under setting [2].
As for `c1cc(Nc2nccc(-c3ccc4[nH]cnc4c3)n2)cc(-n2ccnn2)c1` [Compound 259, N-(3-(1H-1,2,3-triazol-1-yl)phenyl)-4-(1H-benzo[d]imidazol-5-yl)pyrimidin-2-amine], the IC50 runs as follows: under setting [1], below 200 nM; under setting [2], below 200 nM.
For the compound `Oc1cc(-c2ccnc(Nc3cc(C(F)(F)F)ccn3)n2)ccn1` [Compound 158, 4-(2-((4-(trifluoromethyl)pyridin-2-yl)amino)pyrimidin-4-yl)pyridin-2-ol], the IC50 is, setting by setting: under setting [1], 10000 to 100000 nM; under setting [2], 10000 to 100000 nM.
`COc1cccc(-c2cccc(Nc3ccccc3)n2)c1` [Compound 245, 6-(3-Methoxyphenyl)-N-phenylpyridin-2-amine]: the IC50 runs as follows: under setting [1], 10000 to 100000 nM; under setting [2], 10000 to 100000 nM.
As for `Oc1ncc(-c2ccnc(Nc3cccc(C(F)(F)F)c3)n2)s1` [Compound 144, 5-(2-((3-(trifluoromethyl)phenyl)amino)pyrimidin-4-yl)thiazol-2-ol], the 50% inhibitory concentration (IC50) under setting [1] fell in the range of 200 to 1000 nM and the IC50 under setting [2] was 200 to 1000 nM.
On to `COc1cc(-c2ccnc(Nc3cccc(C(N)=O)c3)n2)ccn1` [Compound 198, 3-((4-(2-methoxypyridin-4-yl)pyrimidin-2-yl)amino)benzamide], for which the IC50 is, setting by setting: under setting [1], 1000 to 10000 nM; under setting [2], 1000 to 10000 nM.
In the case of `COc1cc(-c2ccnc(Nc3cncnc3)n2)ccn1` [Compound 179, 4-(2-methoxypyridin-4-yl)-N-(pyrimidin-5-yl)pyrimidin-2-amine], the half-maximal inhibitory concentration (IC50) runs as follows: under setting [1], 10000 to 100000 nM; under setting [2], 10000 to 100000 nM.
Consider `CS(=O)(=O)Nc1cccc(Nc2nccc(-c3ccc4[nH]cnc4c3)n2)c1` [Compound 255, N-(3-((4-(1H-benzo[d]imidazol-5-yl)pyrimidin-2-yl)amino)phenyl)methanesulfonamide], for which the half-inhibitory concentration (IC50) by setting is: under setting [1], 1000 to 10000 nM; under setting [2], 1000 to 10000 nM.
In the case of `Cc1ccc(Nc2nccc(-c3ccc4[nH]cnc4c3)n2)cc1` [Compound 103, 4-(1H-benzo[d]imidazol-5-yl)-N-(p-tolyl)pyrimidin-2-amine], the 50% inhibitory concentration (IC50) under setting [1] fell in the range of 200 to 1000 nM and the IC50 under setting [2] was in the range of 200 to 1000 nM.
`FC(F)(F)c1cccc(Nc2nccc(-c3ccc4scnc4c3)n2)c1` [Compound 76, 4-(benzo[d]thiazol-5-yl)-N-(3-(trifluoromethyl)phenyl)pyrimidin-2-amine]: the IC50 is 1000 to 10000 nM under setting [1] and 1000 to 10000 nM under setting [2].
Consider `Fc1cc(-c2ccnc(Nc3cccc(C(F)(F)F)c3)n2)cc2nc[nH]c12` [Compound 115, 4-(7-fluoro-1H-benzo[d]imidazol-5-yl)-N-(3-(trifluoromethyl)phenyl)pyrimidin-2-amine], for which the IC50 was below 200 nM under setting [1] and below 200 nM under setting [2].
As for `O=C(O)c1cccc(Nc2nccc(-c3ccnc(O)c3)n2)c1` [Compound 196, 3-((4-(2-hydroxypyridin-4-yl)pyrimidin-2-yl)amino)benzoic acid], the IC50 under setting [1] lay in the range of 10000 to 100000 nM and the IC50 under setting [2] lay in the range of 10000 to 100000 nM.
With `COc1cncc(-c2ccnc(Nc3cccc(F)c3)n2)c1` [Compound 203, N-(3-fluorophenyl)-4-(5-methoxypyridin-3-yl)pyrimidin-2-amine], the IC50 under setting [1] is 200 to 1000 nM and the IC50 under setting [2] fell in the range of 200 to 1000 nM.
Take `Fc1cccc(Nc2nccc(-c3cnc4nc[nH]c4c3)n2)c1` [Compound 151, N-(3-fluorophenyl)-4-(1H-imidazo[4,5-b]pyridin-6-yl)pyrimidin-2-amine]: the half-inhibitory concentration (IC50) was below 200 nM under setting [1] and below 200 nM under setting [2].
Consider `Oc1cccc(Nc2nccc(-c3ccc4[nH]cnc4c3)n2)c1` [Compound 90, 3-((4-(1H-benzo[d]imidazol-5-yl)pyrimidin-2-yl)amino)phenol], for which the concentration for half-maximal inhibition (IC50) was below 200 nM under setting [1] and below 200 nM under setting [2].
In the case of `Fc1cccc(Nc2nccc(-c3cnc4[nH]ccc4c3)n2)c1` [Compound 169, N-(3-fluorophenyl)-4-(1H-pyrrolo[2,3-b]pyridin-5-yl)pyrimidin-2-amine], the IC50 under setting [1] fell in the range of 10000 to 100000 nM and the IC50 under setting [2] was 10000 to 100000 nM.
Consider `Oc1cc(-c2ccnc(Nc3cccc(C(F)(F)F)c3)n2)ccn1` [Compound 241, 4-(2-((3-(trifluoromethyl)phenyl)amino)pyrimidin-4-yl)pyridin-2-ol], for which the IC50 is, setting by setting: under setting [1], 200 to 1000 nM; under setting [2], 200 to 1000 nM.
In the case of `COc1cccc(Nc2nccc(-c3ccnc(OC)c3)n2)c1` [Compound 192, N-(3-methoxyphenyl)-4-(2-methoxypyridin-4-yl)pyrimidin-2-amine], the half-inhibitory concentration (IC50) under setting [1] lay within 1000 to 10000 nM and the IC50 under setting [2] was in the range of 1000 to 10000 nM.
As to `O=S(=O)(Nc1cccc(Nc2nccc(-c3ccc4[nH]cnc4c3)n2)c1)c1ccccc1` [Compound 38, N-(3-((4-(1H-benzo[d]imidazol-5-yl)pyrimidin-2-yl)amino)phenyl)benzenesulfonamide], the IC50 is 200 to 1000 nM under setting [1] and 200 to 1000 nM under setting [2].
In the case of `Clc1cccc(Nc2nccc(-c3ccc4[nH]cnc4c3)n2)c1` [Compound 69, 4-(1H-benzo[d]imidazol-5-yl)-N-(3-chlorophenyl)pyrimidin-2-amine], the half-inhibitory concentration (IC50) by setting is: under setting [1], below 200 nM; under setting [2], below 200 nM.
With `CCc1cccc(Nc2nccc(-c3cnc4nc[nH]c4c3)n2)c1` [Compound 140, N-(3-ethylphenyl)-4-(1H-imidazo[4,5-b]pyridin-6-yl)pyrimidin-2-amine], the 50% inhibitory concentration (IC50) under setting [1] is below 200 nM and the concentration for half-maximal inhibition (IC50) under setting [2] was below 200 nM.
As for `Fc1cncc(Nc2nccc(-c3ccc4[nH]cnc4c3)n2)c1` [Compound 83, 4-(1H-benzo[d]imidazol-5-yl)-N-(5-fluoropyridin-3-yl)pyrimidin-2-amine], the half-maximal inhibitory concentration (IC50) fell in the range of 1000 to 10000 nM under setting [1] and 1000 to 10000 nM under setting [2].
`Oc1ccc(-c2ccnc(Nc3cccc(C(F)(F)F)c3)n2)cn1` [Compound 211, 5-(2-((3-(trifluoromethyl)phenyl)amino)pyrimidin-4-yl)pyridin-2-ol]: the IC50 reads like this: under setting [1], 200 to 1000 nM; under setting [2], 200 to 1000 nM.
